{
  "source": "patent EP0750511B1",
  "about": "“TREATING IN[…] THE ADMINISTRATION OF SPECIFIC SULFATASE ENZYMES AND/OR SULFATION INHIBITOR” (THE REGENTS OF THE UNIVERSITY OF CALIFORNIA, priority 1994, dated 1995)",
  "key": {"GlyCAM-1 [1]": {"test_system": "GlyCAM-1", "assay": "[3H]-threonine metabolic labelling of lymph nodes (synthesis of protein core)", "assay_type": "cell-based, mouse", "details": "presence of chlorate", "description": "(§1) To determine what effect chlorate had on the synthesis of the protein core of GlyCAM-1, we employed ^3H-threonine as a metabolic label. […] With or without chlorate treatment, two antibodies against the core protein of GlyCAM-1 precipitated broad bands that ran at ≈50K.\n(§2) Mouse lymph nodes were labeled with 750 µCi of L-[3-^3H] threonine (Amersham) in 0.5 ml of threonine free-1/10 sulfate concentration-RPMI 1640 containing 25 mM HEPES for 4 h at 37°C in the absence or the presence of 10 mM sodium chlorate. Detergent lysates were boiled, precleared and subjected to precipitation with the indicated reagent as described in Example 1. Conditioned media were precleared and precipitated in parallel. The bead-bound material was analyzed on SDS-PAGE under reducing conditions with fluorography. In the anti-peptide antibody lanes, the ≈50K component was compressed by the immunoglobulin heavy chain."}, "L-selectin": {"test_system": "L-selectin", "assay": "Precipitation of metabolically labelled GlyCAM-1 from lymph node cultures with L-selectin chimera (LEC-IgG)", "assay_type": "cell-based", "description": "(§3) Slices of mouse lymph nodes were cultured with ^35S-sulfate in the presence and absence of 10 mM sodium chlorate. Detergent lysates were prepared and subjected to precipitation with several reagents that recognize GlyCAM-1. […] Only a background level (0.9% of control) of radioactivity was measured in the precipitate from the chlorate-treated culture.\n(§4) To determine directly whether the fucosylation of GlyCAM-1 was affected by chlorate, ^3H-fucose was employed as a metabolic precursor. […] However, while LEC-IgG precipitated GlyCAM-1 in the control culture, LEC-IgG precipitated only a background level of counts (7% of control) from the chlorate-treated culture and there was no detectable GlyCAM-1.\nas §1\n(§5) Pooled mesenteric and peripheral lymph nodes from ICR mice (80 mg wet weight per condition) were incubated with (a) 250 µCi of [^35-S]-sodium sulfate (ICN) or (b) 250 µCi of [5,6 ^3-H]-L-fucose (ICN) in the presence or absence of 10 mM Na chlorate (Aldrich) in 0.5 ml of RPMI-1640 with 25 mM HEPES (1/10 sulfate concentration) for 4 h at 37°C. Tissue was extracted with 1.2 ml of 2% Triton X-100 (Boehringer Mannheim) in Dulbecco's PBS containing 1 mM PMSF (Sigma), 1% (v/v) aprotinin (Sigma), 10 µg/ml of pepstatin (Boehringer Mannheim) and 0.02% NaN3 (lysis buffer) as described previously^11. The lysates were boiled 3 min and the supernatants were precleared with 100 µl of Protein A Sepharose (Zymed) overnight. Aliquots of the precleared supernatants were added to 10 µl beads of LEC-IgG-Protein A Sepharose Beads (30 µg LEC-IgG per 10 µl beads), rabbit anti-peptide 2-Protein A beads (10 µl serum per 10 µl beads), rabbit preimmune serum-Protein A beads (10 µl serum per 10 µl beads), Limax flavus agglutinin-Sepharose beads (20 µg protein per 10 µl beads), or Aleuria aurantia agglutinin-Sepharose beads (10 µg protein per 10 µl beads), and incubated for 4 h at 4°C on a rocker. The beads were washed in the lysis buffer (6 times), and the 1/14 aliquots of beads were saved for direct counting by a scintillation counting and the remainder of beads were solubilized in Laemmli sample buffer (without beta mercaptoethanol) and run by on a 10% acrylamide gel (nonreducing condition) with fluorography employing ENHANCE (New England Nuclear). Molecular weight markers (BioRad) were phosphorylase B (97.4 K), BSA (66.2 K), ovalbumin (45 K), carbonic anhydrase (31 K), soybean trypsin inhibitor (21.5 K). LEC-IgG and antiserum were coated on Protein A-Sepharose beads by rocking overnight at 4°C. Lectin beads were prepared by coupling Limax agglutinin (Calbiochem) and AAA (Boehringer Mannheim) to CNBr-activated Sepharose 4B (Sigman). Miller, R., Meth. Enzymol. 138:527-536 (1987).\nas §2"}, "CD34/Sgp90": {"test_system": "CD34/Sgp90", "assay": "Interaction of CD34/Sgp90 with L-selectin after inhibition of its sulfation", "assay_type": "cell-based", "details": "sulfation inhibited by chlorate treatment", "source_text": "The complete loss of reactivity with LEC-IgG establishes the importance of sulfation for binding. […] CD34/Sgp90 is also a sulfated ligand of L-selectin."}, "GlyCAM-1 [2]": {"test_system": "GlyCAM-1", "assay": "Label incorporation into GlyCAM-1 immunoprecipitated (CAM02 Ab) from conditioned medium of lymph node organ culture", "assay_type": "cell-based, mouse", "description": "(^3H-Gal)-labeled GlyCAM-1 was produced in mouse lymph node organ cultures as described in Examples 1-4 above. Undersulfated GlyCAM was generated by organ culture of murine lymph nodes in medium containing 10 mM Na-chlorate, a known inhibitor of sulfation. GlyCAM-1 was isolated from the conditioned media by immunoprecipitation with an antibody to a peptide sequence in the core protein of GlyCAM-1 (CAM02 Ab), as described in Examples 1-4 above. […] Desialylation of GlyCAM-1 was accomplished in all cases by treatment with Arthrobacter ureafacens sialidase (1.75 units/ml) in 120 mM Na acetate, pH 5.5 (18 h 37°C)."}, "GlyCAM-1 [3]": {"test_system": "GlyCAM-1", "assay": "[3H]-fucose metabolic labelling of lymph node organ culture (fucosylation of GlyCAM-1)", "assay_type": "cell-based, mouse", "description": "as §4\nPooled mesenteric and peripheral lymph nodes from ICR mice (80 mg wet weight per condition) were incubated with (a) 250 µCi of [^35-S]-sodium sulfate (ICN) or (b) 250 µCi of [5,6 ^3-H]-L-fucose (ICN) in the presence or absence of 10 mM Na chlorate (Aldrich) in 0.5 ml of RPMI-1640 with 25 mM HEPES (1/10 sulfate concentration) for 4 h at 37°C. Tissue was extracted with 1.2 ml of 2% Triton X-100 (Boehringer Mannheim) in Dulbecco's PBS containing 1 mM PMSF (Sigma), 1% (v/v) aprotinin (Sigma), 10 µg/ml of pepstatin (Boehringer Mannheim) and 0.02% NaN3 (lysis buffer) as described previously^11. The lysates were boiled 3 min and the supernatants were precleared with 100 µl of Protein A Sepharose (Zymed) overnight. […]"}, "GlyCAM-1 [4]": {"test_system": "GlyCAM-1", "assay": "[35S]-sulfate metabolic labelling of lymph node organ culture; precipitation of GlyCAM-1 with peptide antibody or lectins, scintillation counting", "assay_type": "cell-based, mouse", "description": "as §3, §5\nInhibition of GlyCAM-1 sulfation eliminates its interaction and/or binding with L-selectin. This conclusion was reached when aliquots of the same precipitates of Example 1, labeled with (a) [^35-S]-sulfate or (b) [^3-H]-fucose in the presence (dark bars) or absence (cross-hatched bars) of chlorate were subjected to scintillation counting. The percents shown in a given panel (a) (not shown) indicate the percent counts obtained in the presence of chlorate as compared to the absence of chlorate. The values for anti-peptide 2, Limax, and AAA were essentially the same, reflecting the overall reduction in sulfation. In an independent experiment, the corresponding values were: 6% (for LEC-IgG), 35.6% (for anti-peptide 2), 35.3% (for Limax)."}, "[5]": {"details": "chlorate 10 mM in organ cultures of lymph nodes"}},
  "data": [
    {"smiles": "[O-][Cl+2]([O-])O", "note": "[chlorate, sodium chlorate]", "values": [
      {"measurement": "rate of synthesis of the protein core of GlyCAM or CD34", "setting": "GlyCAM-1 [1]", "value": "did not affect"},
      {"measurement": "percent counts in the presence of chlorate as compared to the absence, LEC-IgG", "setting": "L-selectin; [^35-S]-sulfate label, independent experiment, 10000 µM", "value": 6, "unit": "%"},
      {"measurement": "counts precipitated by LEC-IgG", "setting": "L-selectin; ^3H-fucose label, chlorate-treated culture, 10000 µM", "value": "7 % of control"},
      {"measurement": "GlyCAM-1 component precipitated by LEC-IgG from conditioned medium", "setting": "L-selectin; ^3H-threonine label, chlorate present during the culture", "value": "did not react with any components"},
      {"measurement": "radioactivity in the LEC-IgG precipitate", "setting": "L-selectin; ^35S-sulfate label, 10 mM sodium chlorate, detergent lysates", "value": "0.9 % of control"},
      {"measurement": "GlyCAM-1 band precipitated by LEC-IgG (SDS-PAGE)", "setting": "L-selectin; ^35S-sulfate label, chlorate-treated culture, strong band in control", "value": "failed to precipitate a detectable GlyCAM-1 band"},
      {"measurement": "binding to L-selectin (GlyCAM and CD34)", "setting": "L-selectin; [5]", "value": "completely eliminated"},
      {"measurement": "binding of LEC-IgG to GlyCAM", "setting": "L-selectin; culture in chlorate", "value": "completely abrogated"},
      {"measurement": "ability of CD34/Sgp90 to interact with L-selectin", "setting": "CD34/Sgp90", "value": "drastically inhibited"},
      {"measurement": "[^3H]-galactose activity incorporated by GlyCAM, presence versus absence of chlorate", "setting": "GlyCAM-1 [2]; 10 mM Na-chlorate, 0.25 mCi input", "value": "about the same"},
      {"measurement": "incorporation of [^35S]-sulfate into GlyCAM", "setting": "GlyCAM-1 [2]; 10 mM Na-chlorate, 0.5 mCi input, control 1.75 x 10^6 cpm", "value": "0.16 x 10^6 cpm"},
      {"measurement": "activity at 10000 µM", "setting": "GlyCAM-1 [2]; Mus musculus, 10 mM Na-chlorate, 0.5 mCi input, read-out: incorporation of [^35S]-sulfate into GlyCAM", "value": 10, "unit": "%"},
      {"measurement": "[^3H]-galactose activity incorporated by GlyCAM", "setting": "GlyCAM-1 [2]; presence or absence of chlorate, 0.25 mCi input", "value": "2 x 10^6 cpm"},
      {"measurement": "cpm precipitated by the peptide antibody", "setting": "GlyCAM-1 [3]; ^3H-fucose label, detergent lysates, chlorate versus control cultures", "value": "approximately the same number of cpm"},
      {"measurement": "level of fucosylation (incorporation of [^3H]-fucose into GlyCAM)", "setting": "GlyCAM-1 [3]; presence of chlorate", "value": "not affected"},
      {"measurement": "activity at 10000 µM", "setting": "GlyCAM-1 [4]; Mus musculus, [^35-S]-sulfate label, independent experiment, read-out: percent counts in the presence of chlorate as compared to the absence, Limax", "value": 35.3, "unit": "%"},
      {"measurement": "activity at 10000 µM", "setting": "GlyCAM-1 [4]; Mus musculus, [^35-S]-sulfate label, independent experiment, read-out: percent counts in the presence of chlorate as compared to the absence, anti-peptide 2", "value": 35.6, "unit": "%"},
      {"measurement": "activity at 10000 µM", "setting": "GlyCAM-1 [4]; Mus musculus, ^35S-sulfate label, 10 mM sodium chlorate, detergent lysates, scintillation counting, read-out: radioactivity immunoprecipitated by the peptide antibody", "value": 12, "unit": "%"},
      {"measurement": "activity at 10000 µM", "setting": "GlyCAM-1 [4]; Mus musculus, ^35S-sulfate label, 10 mM sodium chlorate, detergent lysates, read-out: ^35S-sulfate precipitated by Aleuria aurentia lectin", "value": 13.7, "unit": "%"},
      {"measurement": "activity at 10000 µM", "setting": "GlyCAM-1 [4]; Mus musculus, ^35S-sulfate label, 10 mM sodium chlorate, detergent lysates, read-out: ^35S-sulfate precipitated by Limax agglutinin", "value": 11.4, "unit": "%"},
      {"measurement": "inhibition at 10000 µM", "setting": "GlyCAM-1 [4]; Mus musculus, chlorate 10 mM in organ cultures of lymph nodes, read-out: reduction of incorporation of ^35S-SO4 into GlyCAM and CD34", "value": "~90", "unit": "%"},
      {"measurement": "activity at 10000 µM", "setting": "GlyCAM-1 [4]; Mus musculus, inferred from the ratio of counts precipitated by the peptide antibody, read-out: sulfate incorporation into GlyCAM-1", "value": "10 to 15", "unit": "%"},
      {"measurement": "Binding of GlyCAM to a fucose-specific lectin (Aleuria aurantia agglutinin)", "setting": "GlyCAM-1 [4]; [5]", "value": "unchanged"},
      {"measurement": "Binding of GlyCAM to a sialic acid specific lectin (Limax agglutinin)", "setting": "GlyCAM-1 [4]; [5]", "value": "unchanged"}
    ]}
  ]
}
